From PMC7497095, “Active Intermediates in Copper Nitrite Reductase Reactions Probed by a Cryotrapping‐Electron Paramagnetic Resonance Approach” (Angewandte Chemie (International Ed. in English), 2020)

Target: T1, AxNiR (Achromobacter xylosoxidans, UniProt O68601)
T1 construct: gene nir; two-domain copper nitrite reductase, homotrimer
Test: continuous-wave EPR of T2Cu; cryoreduction-EPR with annealing
Assay type: binding
Conditions: oxidized enzyme; T2Cu active site; EPR at 20 K

T1 sequence (O68601 entry or part of it): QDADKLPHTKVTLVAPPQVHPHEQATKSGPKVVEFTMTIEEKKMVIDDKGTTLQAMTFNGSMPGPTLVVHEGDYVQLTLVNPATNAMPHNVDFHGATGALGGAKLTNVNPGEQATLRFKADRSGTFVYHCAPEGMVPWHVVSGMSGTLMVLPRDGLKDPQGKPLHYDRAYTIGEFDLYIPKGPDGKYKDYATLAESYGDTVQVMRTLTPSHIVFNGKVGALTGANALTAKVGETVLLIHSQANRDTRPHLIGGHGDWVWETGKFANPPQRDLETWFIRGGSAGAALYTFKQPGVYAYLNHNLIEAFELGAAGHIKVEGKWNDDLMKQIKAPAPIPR

O=NO [nitrite]
continuous-wave EPR of T2Cu; cryoreduction-EPR with annealing: This is indicative of the nitrite being bound to the catalytic T2Cu site
